The source of these data is patent publication US20250122223A1, “HETEROCYCLIC COMPOUNDS AS UBIQUITIN SPECIFIC PROTEASE 7 INHIBITORS” (ALMAC DISCOVERY LIMITED, priority 2022, published 2025).

Structures are written as SMILES. Converted amounts (≈) assume the structure as drawn.

The target of series [1] is T1, USP7 (Homo sapiens (Human), UniProt Q93009). The series is described as follows: USP7 fluorescence polarisation (FP) assay with ubiquitin-Lys-TAMRA substrate. In kind it is biochemical.
The target in series [2] is T1, USP7. The series is described as follows: Target engagement assay-HTRF, competition with HA-Ub-VPS probe in HEK293 cells stably expressing Flag-tagged USP7. Type of series: cell-based. Conditions: HEK293 stable clone M6C5, 2 h treatment; read-out: Cellular target engagement: HEK293 Stable clone M6C5 USP7 IC50. Here is the method:
HEK293 cells stably expressing Flag-tagged USP7 were treated with vehicle (DMSO) or compound (using 50 μM starting concentration and 11 dp using 1:3 serial dilution) for 2 h and subsequently lysed on ice and homogenised. Cell lysate and HA-Ub-VPS probe was then added to a white flat bottomed 384 well plate (Greiner) to a total volume of 10 μL and incubated for 40 min. 10 μL of D2 and Tb detection antibodies were subsequently added to give a final assay volume of 20 μL. Following incubation, HTRF were measured using a Pherastar FSX (BMG Labtech) exciting at 337 nm and measuring the emission at 620/665 nm. The HTRF ratiometric signal was derived and subsequently normalised to the lysate only controls. Data were plotted and fitted, and the concentrations resulting in 50% inhibition (IC50) were calculated using the non-linear regression curve fitting model using GraphPad Prism. IC50 values for the inhibitors of the invention are compiled in Table 1 above and represent the average of at least duplicate experiments.

Series [3] in a line: Kinetic solubility in PBS buffer. In kind it is physicochemical. As to conditions: aqueous buffer, kinetic from dmso stock; PBS buffer pH 7.4. As to the method: Test compounds (5 μL; 10 mM DMSO stock) were added to 245 μL of PBS buffer pH 7.4 (Dulbecco A) in a Millipore MultiScreen® Solubility Filter plate and mixed at 300 rpm at room temperature on a plate shaker for 90 minutes. Meanwhile 5-points calibration curves for each compound were established in a mixture of acetonitrile/PBS buffer (top concentration 200 μM). After filtration and matrix match, the calibration and assay plates were analysed on a BMG Labtech CLARIOstar plate reader (240-400 nm). Final concentration of the test compound in the filtrate was calculated using the slope of the calibration curve.

A short description of series [4]: CLint/CLhep estimates using liver microsomes (human). Type of series: in vitro ADME. As to the method:
(§1) Test compounds (final concentration=1 μM; final DMSO concentration=0.1%) were incubated in 0.1M phosphate buffer pH 7.4 with liver microsomes (human, mouse, rat or dog; 0.5 mg of protein/mL) at 37° C. Reactions were started by addition of NADPH in 0.1M phosphate buffer pH 7.4 (final concentration 1 mM). 40 μL aliquots were removed at 3, 6, 10, 15, 20, 30, 40 and 50 minutes. Reactions were quenched in 80 μL of ice-cold methanol. Samples were subsequently frozen overnight then centrifuged at 3500 rpm for 20 minutes at 4° C. The supernatants were removed and transferred into analytical plates and analysed by LC/MS/MS.
(§2) All samples were analysed on a Waters Acquity I-Class coupled to a Waters Xevo TQD mass spectrometer. A Waters BEH C18 2.1×50 mm 1.7 μm column was used and mobile phases were water and methanol containing 0.1% formic acid as modifier. Analysis was by multiple reaction monitoring and conditions were optimised for each test compound.
(§3) From a plot of In peak area against time, the gradient of the line is determined.
(§4) Subsequently, half-life and intrinsic clearance are calculated using the equations below: […]
(§5) The CLhep was calculated as follows: […]
(§6) Where CLint (mL/min/kg) is the intrinsic clearance scaled to a whole liver and Qh is hepatic liver blood flow.

Series [5] is described as follows: CLint/CLhep estimates using liver microsomes (rat). In kind it is in vitro ADME. As to the method:
as §1, §2, §3, §4, §5, §6

A short description of series [6]: CLint/CLhep estimates using liver microsomes (mouse). In kind it is in vitro ADME. Here is the method:
as §1, §2, §3, §4, §5, §6

Series [7] is described as follows: CLint/CLhep estimates using liver microsomes (dog). In kind it is in vitro ADME. As to the method: as §1, §2, §3, §4, §5, §6
Series [8] can be described thus: Pharmacokinetic (PK) parameters in mouse. In kind it is in vivo, BALB/c mouse.
Where [9] appears, read: average of at least duplicate experiments, read-out: Biochemical: USP7 IC50.
The mark [10] stands for this setting: biochemical inhibition, read-out: USP7 IC50 activity (Table 3a, classes).
Where [11] appears, read: biochemical inhibition, unit not given in Table 3b (Table 1 and key of Table 3a use μM), read-out: USP7 IC50 activity (Table 3b).

T1 sequence (Q93009 whole entry): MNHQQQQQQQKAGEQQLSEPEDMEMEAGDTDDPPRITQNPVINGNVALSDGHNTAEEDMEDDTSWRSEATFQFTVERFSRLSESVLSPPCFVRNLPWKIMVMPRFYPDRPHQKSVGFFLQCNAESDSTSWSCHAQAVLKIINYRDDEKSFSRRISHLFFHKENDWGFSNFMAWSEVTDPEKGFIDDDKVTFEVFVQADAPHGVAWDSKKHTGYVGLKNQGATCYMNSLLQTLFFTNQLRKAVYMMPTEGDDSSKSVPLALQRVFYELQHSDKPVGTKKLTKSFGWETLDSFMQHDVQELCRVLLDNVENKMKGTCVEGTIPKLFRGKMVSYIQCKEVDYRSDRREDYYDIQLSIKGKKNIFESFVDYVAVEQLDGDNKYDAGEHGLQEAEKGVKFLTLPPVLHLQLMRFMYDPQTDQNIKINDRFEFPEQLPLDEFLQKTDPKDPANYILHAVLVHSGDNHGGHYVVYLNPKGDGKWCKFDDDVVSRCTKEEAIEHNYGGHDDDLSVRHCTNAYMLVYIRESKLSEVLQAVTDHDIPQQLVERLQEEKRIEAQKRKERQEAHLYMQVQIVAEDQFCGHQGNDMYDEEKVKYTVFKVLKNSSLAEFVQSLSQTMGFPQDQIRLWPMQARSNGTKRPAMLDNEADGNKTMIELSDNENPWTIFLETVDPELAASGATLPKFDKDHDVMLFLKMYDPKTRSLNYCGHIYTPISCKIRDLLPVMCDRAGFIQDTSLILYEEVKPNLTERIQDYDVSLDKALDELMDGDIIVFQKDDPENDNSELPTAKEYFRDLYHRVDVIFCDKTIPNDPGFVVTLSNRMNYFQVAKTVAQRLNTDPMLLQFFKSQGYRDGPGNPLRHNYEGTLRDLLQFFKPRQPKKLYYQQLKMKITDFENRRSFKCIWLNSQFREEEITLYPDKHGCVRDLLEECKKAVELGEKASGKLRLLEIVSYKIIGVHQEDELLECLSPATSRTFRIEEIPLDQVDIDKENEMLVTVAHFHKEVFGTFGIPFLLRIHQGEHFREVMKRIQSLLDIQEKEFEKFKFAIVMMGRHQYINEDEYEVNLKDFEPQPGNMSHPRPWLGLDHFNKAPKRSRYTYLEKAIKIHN

Consider `C[C@H]1CN[C@H](c2ccc(-n3c(Cl)cc4c(=O)n(CC5(O)CCN(C(=O)[C@]6(C)C[C@H]6C(F)(F)F)CC5)cnc43)cc2)CO1` (single isomer, unassigned) [Example 32, 6-Chloro-3-((4-hydroxy-1-((1S,2S)-1-methyl-2-(trifluoromethyl)cyclopropane-1-carbonyl)piperidin-4-yl)methyl)-7-(4-((3R,6S)-6-methylmorpholin-3-yl)phenyl)-3,7-dihydro-4H-pyrrolo[2,3-d]pyrimidin-4-one or 6-chloro-3-((4-hydroxy-1-((1R,2R)-1-methyl-2-(trifluoromethyl)cyclopropane-1-carbonyl)piperidin-4-yl)methyl)-7-(4-((3R,6S)-6-methylmorpholin-3-yl)phenyl)-3,7-dihydro-4H-pyrrolo[2,3-d]pyrimidin-4-one], for which the IC50 was 0.048 µM at USP7 [1] (setting [9]), less than 0.1 µM at USP7 [1] (setting [10]), 0.048 µM at USP7 [1] (setting [11]) and 130 nM on USP7 [2]. Further, in series [3], the solubility (kinetic) at 90 min turned out to be 197 µM (≈ 120 µg/mL). Besides, the “Liver Microsomes: CLhep Human” value in series [4] is 5.8 mL/min/kg. For the same compound, the “Liver Microsomes: CLhep Rat” value in series [5] was 6.5 mL/min/kg. Also, the “Liver Microsomes: CLhep Mouse” value in series [6] is on record as 11.5 mL/min/kg. For the same compound, the “Liver Microsomes: CLhep Dog” value in series [7] is 4.5 mL/min/kg. The CLb in series [8] (BALB/c mouse IV 1 mg/kg) amounted to 28.2 mL/min/kg. Also, in series [8] (BALB/c mouse PO 3 mg/kg), the F is reported as 116%. In addition, the AUC(0-inf) in series [8] (blood, BALB/c mouse IV 1 mg/kg) came to 591 ng·h/mL; in series [8] (blood, BALB/c mouse PO 3 mg/kg), 2100 ng·h/mL. Further, the half-life in series [8] (blood, BALB/c mouse IV 1 mg/kg) was 3.5 h. In addition, the Vd in series [8] (blood, BALB/c mouse IV 1 mg/kg, read-out: Vss) is 5.49 L/kg.

`Cc1cc(-n2c(Cl)cc3c(=O)n(CC4(O)CCN(C(=O)[C@]5(C)C[C@H]5C(F)(F)F)CC4)cnc32)ccc1[C@H]1CO[C@H](C)CN1` (single isomer, unassigned) [Example 62]: the IC50 on USP7 [1] (setting [9]) is 0.038 µM; on USP7 [1] (setting [10]), less than 0.1 µM; on USP7 [1] (setting [11]) it was 0.038 µM; at USP7 [2] it was 100 nM.

In the case of `CC[C@H]1CN[C@H](c2ccc(-n3c(Cl)cc4c(=O)n(CC5(O)CCN(C(=O)[C@]6(C)C[C@H]6C(F)(F)F)CC5)cnc43)cc2)CO1` (single isomer, unassigned) [Example 66, 6-Chloro-7-(4-((3R,6S)-6-ethylmorpholin-3-yl)phenyl)-3-((4-hydroxy-1-((1 S,2S)-1-methyl-2-(trifluoromethyl)cyclopropane-1-carbonyl)piperidin-4-yl)methyl)-3,7-dihydro-4H-pyrrolo[2,3-d]pyrimidin-4-one or 6-chloro-7-(4-((3R,6S)-6-ethylmorpholin-3-yl)phenyl)-3-((4-hydroxy-1-((1R,2R)-1-methyl-2-(trifluoromethyl)cyclopropane-1-carbonyl)piperidin-4-yl)methyl)-3,7-dihydro-4H-pyrrolo[2,3-d]pyrimidin-4-one], the IC50 on USP7 [1] (setting [9]) was 0.063 µM; on USP7 [1] (setting [10]), less than 0.1 µM; at USP7 [1] (setting [11]), 0.063 µM; on USP7 [2], 74 nM.

Turning to `O=C(C[C@H](c1ccccc1)C(F)F)N1CCC(O)(Cn2cnc3c(cc(Cl)n3-c3ccc([C@H]4COCCN4)cc3)c2=O)CC1` (single isomer, unassigned) [Example 82], the IC50 at USP7 [1] (setting [9]) was 0.006 µM; at USP7 [1] (setting [10]) it was less than 0.1 µM; at USP7 [1] (setting [11]) it was 0.006 µM; at USP7 [2], 9.4 nM.

For the compound `CC1(C(=O)N2CCC(O)(Cn3cnc4c(cc(Cl)n4-c4cccc(N5CCOCC5)c4)c3=O)CC2)CC1` [Comparative Example, reference compound], the IC50 at USP7 [1] (setting [9]) is 0.19 µM; on USP7 [2], greater than 50000 nM. The compound further displayed a kinetic solubility at 90 min in series [3] of 151 µM (≈ 79.4 µg/mL). In series [4], the “Liver Microsomes: CLhep Human” value is given as 14.5 mL/min/kg. Besides, in series [5], the “Liver Microsomes: CLhep Rat” value was 27 mL/min/kg. The “Liver Microsomes: CLhep Mouse” value in series [6] is listed as 63.9 mL/min/kg. The “Liver Microsomes: CLhep Dog” value in series [7] was 22.3 mL/min/kg.

As for `C[C@H]1OCCN[C@@H]1c1ccc(-n2c(Cl)cc3c(=O)n(CC4(O)CCN(C(=O)c5ccc(Cl)cc5)CC4)cnc32)cc1` [Example 8, 6-Chloro-3-((1-(4-chlorobenzoyl)-4-hydroxypiperidin-4-yl)methyl)-7-(4-((2R,3R)-2-methylmorpholin-3-yl)phenyl)-3,7-dihydro-4H-pyrrolo[2,3-d]pyrimidin-4-one], the 50% inhibitory concentration (IC50) at USP7 [1] (setting [9]) was 0.077 µM; on USP7 [1] (setting [10]), less than 0.1 µM; at USP7 [1] (setting [11]), 0.077 µM; on USP7 [2] it was 66 nM.

Turning to `Cc1cc(-n2c(Cl)cc3c(=O)n(CC4(O)CCN(C(=O)C[C@H](c5ccccc5)C(F)(F)F)CC4)cnc32)ccc1[C@H]1CO[C@H](C)CN1` [Example 14, 6-Chloro-3-((4-hydroxy-1-((R)-4,4,4-trifluoro-3-phenylbutanoyl)piperidin-4-yl)methyl)-7-(3-methyl-4-((3S,6R)-6-methylmorpholin-3-yl)phenyl)-3,7-dihydro-4H-pyrrolo[2,3-d]pyrimidin-4-one], the IC50 is 0.018 µM at USP7 [1] (setting [9]), less than 0.1 µM on USP7 [1] (setting [10]), 0.018 µM on USP7 [1] (setting [11]) and 40 nM at USP7 [2].

As to `CC1(C(=O)N2CCC(O)(Cn3cnc4c(cc(Cl)n4-c4ccc([C@H]5COCCN5)cc4)c3=O)CC2)CC1C(F)(F)F` (stereo partly drawn) [Example 83, 6-Chloro-3-((4-hydroxy-1-(1-methyl-2-(trifluoromethyl)cyclopropane-1-carbonyl)piperidin-4-yl)methyl)-7-(4-((S)-morpholin-3-yl)phenyl)-3,7-dihydro-4H-pyrrolo[2,3-d]pyrimidin-4-one], the IC50 on USP7 [1] (setting [9]) is 0.028 µM; at USP7 [1] (setting [10]), less than 0.1 µM; on USP7 [1] (setting [11]), 0.028 µM; on USP7 [2], 76 nM.

On to `C[C@@H]1CN[C@@H](c2ccc(-n3c(Cl)cc4c(=O)n(CC5(O)CCN(C(=O)[C@@]6(C)C[C@@H]6C(F)(F)F)CC5)cnc43)cc2)CO1` [Example 109, 6-Chloro-3-((4-hydroxy-1-((1S,2S)-1-methyl-2-(trifluoromethyl)cyclopropane-1-carbonyl)piperidin-4-yl)methyl)-7-(4-((3S,6R)-6-methylmorpholin-3-yl)phenyl)-3,7-dihydro-4H-pyrrolo[2,3-d]pyrimidin-4-one], for which the IC50 is 0.1 to 0.25 µM at USP7 [1] (setting [10]) and 0.182 µM on USP7 [1] (setting [11]).

Consider `C[C@H]1CN[C@H](c2ccc(-n3c(Cl)cc4c(=O)n(CC5(O)CCN(C(=O)[C@@]6(C)C[C@@H]6C(F)F)CC5)cnc43)cc2)CO1` [Example 111, 6-Chloro-3-((1-((1 S,2S)-2-(difluoromethyl)-1-methylcyclopropane-1-carbonyl)-4-hydroxypiperidin-4-yl)methyl)-7-(4-((3R,6S)-6-methylmorpholin-3-yl)phenyl)-3,7-dihydro-4H-pyrrolo[2,3-d]pyrimidin-4-one], for which the IC50 at USP7 [1] (setting [10]) is 0.1 to 0.25 µM; on USP7 [1] (setting [11]), 0.145 µM.

On to `C[C@H]1CN[C@H](c2ccc(-n3c(Cl)cc4c(=O)n(CC5(O)CCN(C(=O)[C@]6(C)C[C@H]6C(F)F)CC5)cnc43)cc2)CO1` [Example 112, 6-Chloro-3-((1-((1R,2R)-2-(difluoromethyl)-1-methylcyclopropane-1-carbonyl)-4-hydroxypiperidin-4-yl)methyl)-7-(4-((3R,6S)-6-methylmorpholin-3-yl)phenyl)-3,7-dihydro-4H-pyrrolo[2,3-d]pyrimidin-4-one], for which the half-maximal inhibitory concentration (IC50) at USP7 [1] (setting [10]) is less than 0.1 µM; on USP7 [1] (setting [11]), 0.018 µM.
